Measurements reported in US12331040B2 (Karyopharm Therapeutics Inc., priority 2013, dated 2025).
Read-outs that look alike come from different tables or passages of the source.

How the values were obtained:
Assay in all cases: MTT cell proliferation assay
Type in all cases: cell-based
[1] = tested on: 3T3 cells; conditions: Mus musculus, NIH3T3, approximately 64-72 hours incubation
Procedure: (§1) The MTT cell proliferation assay was used to study the cytotoxic properties of the compounds. The assay was performed according to the method described by Roche Molecular Biochemicals, with minor modifications. The assay is based on the cleavage of the tetrazolium salt, MTT, in the presence of an electron-coupling reagent. The water-insoluble formazan salt produced must be solubilized in an additional step. Cells grown in a 96-well tissue culture plate were incubated with the MTT solution for approximately 4 hours. After this incubation period, a water-insoluble formazan dye formed. After solubilization, the formazan dye was quantitated using a scanning multi-well spectrophotometer (ELISA reader). […] The cells were seeded at 5,000-10,000 cells in each well of 96-well plate in 100 μL of fresh culture medium and were allowed to attach overnight. The stock solutions of the compounds were diluted in 100 μL cell culture medium to obtain eight concentrations of each test compound, ranging from 1 nM to 30 μM. […] All optical densities were measured at 490 nm using a Vmax Kinetic Microplate Reader (Molecular Devices). In most cases, the assay was performed in duplicate and the results were presented as a mean percent inhibition to the negative control±SE. The following formula was used to calculate the percent of inhibition: Inhibition (%)=(1−(ODo/OD))×100.
(§2) The compounds were tested against MS751, Z138 and 3T3 cells. The MS751 cell line is derived from a metastasis to lymph node of human cervix from a patient diagnosed with squamous cell carcinoma of the cervix. The Z138 cell line is a mature B-cell acute lymphoblastic leukemia cell line derived from a patient with chronic lymphocytic leukemia. 3T3 cells are standard fibroblast cells; they were originally isolated from Swiss mouse embryo tissue.

[2] = tested on: Z138 cells; conditions: Homo sapiens, Z-138, Z138 cells, approximately 64-72 hours incubation
Procedure: as §1, §2

[3] = tested on: MS751 cells; conditions: Homo sapiens, MS751, MS751 cells, approximately 64-72 hours incubation
Procedure: as §1, §2

[4] = read-out: MTT Assay IC50 MS-751
[5] = read-out: MTT Assay IC50, Z-138
[6] = read-out: MTT Assay IC50, MS-751

For `CC1(F)CCN(C(=O)c2ccc(-c3cc(C(F)(F)F)c4oc(CNC(=O)/C=C/c5ccc(N)nc5)cc4c3)cc2)C1` (stereo not drawn) [Compound 608, (E)-3-(6-aminopyridin-3-yl)-N-((5-(4-(3-fluoro-3-methylpyrrolidine-1-carbonyl)phenyl)-7-(trifluoromethyl)benzofuran-2-yl)methyl)acrylamide], the IC50 ([1]; read-out: MTT Assay IC50 3T3) was over 10 µM, the IC50 ([2]; read-out: MTT Assay IC50 Z-138) was 0.1 to 5 µM and the IC50 [3, 4] was 0.1 to 5 µM.

Work on `O=C(/C=C/c1cccnc1)NCc1cc2cc(-c3ccc(C(=O)N4CCC(F)(F)CC4)cc3)cc(-c3cccnc3)c2o1` [Compound 725, (E)-N-((5-(4-(4,4-difluoropiperidine-1-carbonyl)phenyl)-7-(pyridin-3-yl)benzofuran-2-yl)methyl)-3-(pyridin-3-yl)acrylamide] yielded an IC50 ([1]; read-out: MTT Assay IC50, 3T3) of under 0.1 µM, an IC50 [2, 5] of under 0.1 µM and an IC50 [3, 6] of under 0.1 µM.

`Nc1ccc(/C=C/C(=O)NCc2cc3cc(-c4ccc(C(=O)N5CCC(F)(F)CC5)cc4F)cc(-c4ccc(C(F)(F)F)cc4)c3o2)cn1` [Compound 749, (E)-3-(6-aminopyridin-3-yl)-N-((5-(4-(4,4-difluoropiperidine-1-carbonyl)-2-fluorophenyl)-7-(4-(trifluoromethyl)phenyl)benzofuran-2-yl)methyl)acrylamide] was tested, and the IC50 ([1]; read-out: MTT Assay IC50, 3T3) was over 10 µM, the IC50 [2, 5] was 0.1 to 5 µM and the IC50 [3, 6] was over 10 µM.

In the case of `Nc1ccc(/C=C/C(=O)NCc2cc3cc(-c4ccc(C(=O)N5CCC(F)(F)CC5)cc4F)cc(-c4ccc(Cl)cc4)c3o2)cn1` [Compound 750, (E)-3-(6-aminopyridin-3-yl)-N-((7-(4-chlorophenyl)-5-(4-(4,4-difluoropiperidine-1-carbonyl)-2-fluorophenyl)benzofuran-2-yl)methyl)acrylamide], the IC50 ([1]; read-out: MTT Assay IC50, 3T3) is reported as over 10 µM, the IC50 [2, 5] is reported as 0.1 to 5 µM and the IC50 [3, 6] is reported as 0.1 to 5 µM.

`Nc1ccc(/C=C/C(=O)NCc2cc3cc(-c4ccc(C(=O)NNc5cnccn5)cc4)cc(Cl)c3o2)cn1` [Compound 505, (E)-3-(6-aminopyridin-3-yl)-N-((7-chloro-5-(4-(2-(pyrazin-2-yl)hydrazine-1-carbonyl)phenyl)benzofuran-2-yl)methyl)acrylamide] gave an IC50 ([1]; read-out: MTT Assay IC50 3T3) of over 10 µM, an IC50 ([2]; read-out: MTT Assay IC50 Z-138) of 0.1 to 5 µM and an IC50 [3, 4] of 0.1 to 5 µM.

`Nc1ccc(/C=C/C(=O)NCc2cc3cc(-c4ccc(C(=O)N5CCOCC5)cn4)cc(Cl)c3o2)cn1` [Compound 560, (E)-3-(6-aminopyridin-3-yl)-N-((7-chloro-5-(5-(morpholine-4-carbonyl)pyridin-2-yl)benzofuran-2-yl)methyl)acrylamide] was tested, and the IC50 ([1]; read-out: MTT Assay IC50 3T3) was over 10 µM, the IC50 ([2]; read-out: MTT Assay IC50 Z-138) was 0.1 to 5 µM and the IC50 [3, 4] was 0.1 to 5 µM.

Compound `Nc1ccc(/C=C/C(=O)NCc2cc3cc(-c4ccc(C(=O)N5CCC(F)(F)CC5)cc4)cc(-c4cc(F)cc(F)c4)c3o2)cn1` [Compound 734, (E)-3-(6-aminopyridin-3-yl)-N-((7-(3,5-difluorophenyl)-5-(4-(4,4-difluoropiperidine-1-carbonyl)phenyl)benzofuran-2-yl)methyl)acrylamide] has an IC50 ([1]; read-out: MTT Assay IC50, 3T3) of 0.1 to 5 µM, an IC50 [2, 5] of under 0.1 µM and an IC50 [3, 6] of under 0.1 µM.

With `Nc1ccc(/C=C/C(=O)NCCc2cc3cc(-c4ccc(C(=O)N5CCOCC5)cc4)cc(Cl)c3o2)cn1` [Compound 532, (E)-3-(6-aminopyridin-3-yl)-N-(2-(7-chloro-5-(4-(morpholine-4-carbonyl)phenyl)benzofuran-2-yl)ethyl)acrylamide] the IC50 ([1]; read-out: MTT Assay IC50 3T3) was under 0.1 µM, the IC50 ([2]; read-out: MTT Assay IC50 Z-138) was under 0.1 µM and the IC50 [3, 4] was under 0.1 µM.

For `CS(=O)(=O)c1ccc(-c2cc(-c3ccc(F)cc3)c3oc(CNC(=O)/C=C/c4ccc(N)nc4)cc3c2)cc1` [Compound 693, (E)-3-(6-aminopyridin-3-yl)-N-((7-(4-fluorophenyl)-5-(4-(methylsulfonyl)phenyl)benzofuran-2-yl)methyl)acrylamide], the IC50 ([1]; read-out: MTT Assay IC50, 3T3) was 0.1 to 5 µM, the IC50 [2, 5] was under 0.1 µM and the IC50 [3, 6] was under 0.1 µM.

For `Nc1ccc(/C=C/C(=O)NCc2cc3cc(-c4ccc(C(=O)N5CCNCC5)cc4)cc(C(F)(F)F)c3o2)cn1` [Compound 564, (E)-3-(6-aminopyridin-3-yl)-N-((5-(4-(piperazine-1-carbonyl)phenyl)-7-(trifluoromethyl)benzofuran-2-yl)methyl)acrylamide], the IC50 ([1]; read-out: MTT Assay IC50 3T3) was over 10 µM, the IC50 ([2]; read-out: MTT Assay IC50 Z-138) was under 0.1 µM and the IC50 [3, 4] was under 0.1 µM.

`Nc1ccc(/C=C/C(=O)NCc2cc3cc(-c4ccc(C(=O)N5CCC(F)(F)CC5)cc4)cc(-c4ccc(Cl)cc4)c3o2)cn1` [Compound 742, (E)-3-(6-aminopyridin-3-yl)-N-((7-(4-chlorophenyl)-5-(4-(4,4-difluoropiperidine-1-carbonyl)phenyl)benzofuran-2-yl)methyl)acrylamide] showed an IC50 ([1]; read-out: MTT Assay IC50, 3T3) of over 10 µM, an IC50 [2, 5] of 0.1 to 5 µM and an IC50 [3, 6] of 0.1 to 5 µM.

For `Nc1ccc(/C=C/C(=O)NCc2cc3cc(-c4cccc(C(=O)N5CCOCC5)c4)cc(C(F)(F)F)c3o2)cn1` [Compound 717, (E)-3-(6-aminopyridin-3-yl)-N-((5-(3-(morpholine-4-carbonyl)phenyl)-7-(trifluoromethyl)benzofuran-2-yl)methyl)acrylamide], the IC50 ([1]; read-out: MTT Assay IC50, 3T3) was over 10 µM, the IC50 [2, 5] was under 0.1 µM and the IC50 [3, 6] was 0.1 to 5 µM.

`Nc1ccc(/C=C/C(=O)NCc2cc3cc(-c4ccc(C(=O)N5CC[C@H](Cl)C5)cn4)cc(C(F)(F)F)c3o2)cn1` [Compound 618, (S,E)-3-(6-aminopyridin-3-yl)-N-((5-(5-(3-chloropyrrolidine-1-carbonyl)pyridin-2-yl)-7-(trifluoromethyl)benzofuran-2-yl)methyl)acrylamide] was tested, and the IC50 ([1]; read-out: MTT Assay IC50 3T3) was over 10 µM, the IC50 ([2]; read-out: MTT Assay IC50 Z-138) was 0.1 to 5 µM and the IC50 [3, 4] was 0.1 to 5 µM.

`Nc1ccc(/C=C/C(=O)NCc2cc3cc(-c4ccc(C(=O)N5CCOCC5)c(F)c4)cc(Cl)c3o2)cn1` [Compound 549, (E)-3-(6-aminopyridin-3-yl)-N-((7-chloro-5-(3-fluoro-4-(morpholine-4-carbonyl)phenyl)benzofuran-2-yl)methyl)acrylamide] gave an IC50 ([1]; read-out: MTT Assay IC50 3T3) of over 10 µM, an IC50 ([2]; read-out: MTT Assay IC50 Z-138) of 0.1 to 5 µM and an IC50 [3, 4] of 0.1 to 5 µM.

With `Nc1ccc(/C=C/C(=O)NCc2cc3cc(-c4ccc(Oc5ccc(F)cc5)cc4)cc(-c4ccc(F)cc4)c3o2)cn1` [Compound 701, (E)-3-(6-aminopyridin-3-yl)-N-((5-(4-(4-fluorophenoxy)phenyl)-7-(4-fluorophenyl)benzofuran-2-yl)methyl)acrylamide] the IC50 ([1]; read-out: MTT Assay IC50, 3T3) was over 10 µM, the IC50 [2, 5] was 0.1 to 5 µM and the IC50 [3, 6] was 0.1 to 5 µM.

`Nc1ccc(/C=C/C(=O)NCc2cc3cc(-c4ccc(C(=O)N5CCC(F)(F)CC5)cc4)cc(-c4ccc(F)c(Cl)c4)c3o2)cn1` [Compound 711, (E)-3-(6-aminopyridin-3-yl)-N-((7-(3-chloro-4-fluorophenyl)-5-(4-(4,4-difluoropiperidine-1-carbonyl)phenyl)benzofuran-2-yl)methyl)acrylamide] was tested, and the IC50 ([1]; read-out: MTT Assay IC50, 3T3) was 0.1 to 5 µM, the IC50 [2, 5] was under 0.1 µM and the IC50 [3, 6] was under 0.1 µM.

Compound `Nc1ccc(/C=C/C(=O)NCc2cc3cc(-c4ccc(C(=O)CN5CCOCC5)cc4)cc(Cl)c3o2)cn1` [Compound 507, (E)-3-(6-aminopyridin-3-yl)-N-((7-chloro-5-(4-(2-morpholinoacetyl)phenyl)benzofuran-2-yl)methyl)acrylamide] has an IC50 ([1]; read-out: MTT Assay IC50 3T3) of over 10 µM, an IC50 ([2]; read-out: MTT Assay IC50 Z-138) of 0.1 to 5 µM and an IC50 [3, 4] of 0.1 to 5 µM.

With `O=C(/C=C/c1ccncc1)NCc1cc2cc(-c3ccc(C(=O)N4CCOCC4)cc3)cc(Cl)c2o1` [Compound 535, (E)-N-((7-Chloro-5-(4-(morpholine-4-carbonyl)phenyl)benzofuran-2-yl)methyl)-3-(pyridin-4-yl)acrylamide] the IC50 ([1]; read-out: MTT Assay IC50 3T3) was over 10 µM, the IC50 ([2]; read-out: MTT Assay IC50 Z-138) was over 10 µM and the IC50 [3, 4] was over 10 µM.

`CN1C(=O)c2ccc(-c3cc(Cl)c4oc(CNC(=O)/C=C/c5ccc(N)nc5)cc4c3)cc2C1=O` [Compound 514, (E)-3-(6-aminopyridin-3-yl)-N-((7-chloro-5-(2-methyl-1,3-dioxoisoindolin-5-yl)benzofuran-2-yl)methyl)acrylamide] showed an IC50 ([1]; read-out: MTT Assay IC50 3T3) of over 10 µM, an IC50 ([2]; read-out: MTT Assay IC50 Z-138) of 0.1 to 5 µM and an IC50 [3, 4] of 5 to 10 µM.

`NC(=O)c1ccc(-c2cc(Cl)c3oc(CNC(=O)/C=C/c4ccc(N)nc4)cc3c2)cc1` [Compound 506, (E)-4-(2-((3-(6-aminopyridin-3-yl)acrylamido)methyl)-7-chlorobenzofuran-5-yl)benzamide] showed an IC50 ([1]; read-out: MTT Assay IC50 3T3) of over 10 µM, an IC50 ([2]; read-out: MTT Assay IC50 Z-138) of 0.1 to 5 µM and an IC50 [3, 4] of 5 to 10 µM.

For `Nc1ccc(/C=C/C(=O)NCc2cc3cc(-c4ccc(C(=O)N5CCC(F)(F)CC5)cc4F)cc(-c4ccc(F)cc4)c3o2)cn1` [Compound 751, (E)-3-(6-aminopyridin-3-yl)-N-((5-(4-(4,4-difluoropiperidine-1-carbonyl)-2-fluorophenyl)-7-(4-fluorophenyl)benzofuran-2-yl)methyl)acrylamide], the IC50 ([1]; read-out: MTT Assay IC50, 3T3) was 0.1 to 5 µM, the IC50 [2, 5] was under 0.1 µM and the IC50 [3, 6] was under 0.1 µM.
